Data on 10 molecules can be found in US20250302832A1, “PYRAZINE DERIVATIVES AND USES THEREOF” (FOGHORN THERAPEUTICS INC., priority 2022, published 2025).

One experiment concerns the target T1, HiBit-BRM fusion protein (Homo sapiens, UniProt P51531).
T1 construct: expressed in transfected cells
Nature of the experiment: HiBiT-BRM cell-based degradation assay (Nano-Glo HiBiT lytic detection, 24 h). The note with it: HeLa cell line expressing HiBiT-BRM; for DC50: read-out: BRM HiBit Degradation IC50. Put shortly:
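Luminescence from LgBiT complementation quantified remaining HiBiT-BRM in stably expressing HeLa cells after 24 h compound exposure (top final dose 30 μM, 3-fold, 10 points, duplicate). Degradation expressed as percent relative to DMSO and a 2 μM reference degrader.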
For orientation: The HiBiT peptide binds its large partner to form an active luciferase.

For experiment [1], the target named is T2, HiBit-BRG1 fusion protein (Homo sapiens, UniProt P51532).
T2 construct: expressed in transfected cells
Description: HiBiT-BRG1 cell-based degradation assay (Nano-Glo HiBiT lytic detection, 24 h). The note with it: HeLa cell line expressing HiBit-BRG1 and LgBit; for Dmax: read-out: BRG1 HiBit Degradation Maximum (%); for DC50: read-out: BRMG1 HiBit Degradation IC50. Put shortly: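 Luminescence from HiBiT/LgBiT complementation after lytic detection reagent was read following 24 h compound exposure of HeLa cells stably carrying HiBiT-BRG1 plus LgBiT (5000 cells/well). Signal scaled to % degradation using DMSO-treated cells as 0% and cells given 2 μM known BRM/BRG1 degrader as 100%.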

T1 sequence (P51531 whole entry, the tested form may be a part): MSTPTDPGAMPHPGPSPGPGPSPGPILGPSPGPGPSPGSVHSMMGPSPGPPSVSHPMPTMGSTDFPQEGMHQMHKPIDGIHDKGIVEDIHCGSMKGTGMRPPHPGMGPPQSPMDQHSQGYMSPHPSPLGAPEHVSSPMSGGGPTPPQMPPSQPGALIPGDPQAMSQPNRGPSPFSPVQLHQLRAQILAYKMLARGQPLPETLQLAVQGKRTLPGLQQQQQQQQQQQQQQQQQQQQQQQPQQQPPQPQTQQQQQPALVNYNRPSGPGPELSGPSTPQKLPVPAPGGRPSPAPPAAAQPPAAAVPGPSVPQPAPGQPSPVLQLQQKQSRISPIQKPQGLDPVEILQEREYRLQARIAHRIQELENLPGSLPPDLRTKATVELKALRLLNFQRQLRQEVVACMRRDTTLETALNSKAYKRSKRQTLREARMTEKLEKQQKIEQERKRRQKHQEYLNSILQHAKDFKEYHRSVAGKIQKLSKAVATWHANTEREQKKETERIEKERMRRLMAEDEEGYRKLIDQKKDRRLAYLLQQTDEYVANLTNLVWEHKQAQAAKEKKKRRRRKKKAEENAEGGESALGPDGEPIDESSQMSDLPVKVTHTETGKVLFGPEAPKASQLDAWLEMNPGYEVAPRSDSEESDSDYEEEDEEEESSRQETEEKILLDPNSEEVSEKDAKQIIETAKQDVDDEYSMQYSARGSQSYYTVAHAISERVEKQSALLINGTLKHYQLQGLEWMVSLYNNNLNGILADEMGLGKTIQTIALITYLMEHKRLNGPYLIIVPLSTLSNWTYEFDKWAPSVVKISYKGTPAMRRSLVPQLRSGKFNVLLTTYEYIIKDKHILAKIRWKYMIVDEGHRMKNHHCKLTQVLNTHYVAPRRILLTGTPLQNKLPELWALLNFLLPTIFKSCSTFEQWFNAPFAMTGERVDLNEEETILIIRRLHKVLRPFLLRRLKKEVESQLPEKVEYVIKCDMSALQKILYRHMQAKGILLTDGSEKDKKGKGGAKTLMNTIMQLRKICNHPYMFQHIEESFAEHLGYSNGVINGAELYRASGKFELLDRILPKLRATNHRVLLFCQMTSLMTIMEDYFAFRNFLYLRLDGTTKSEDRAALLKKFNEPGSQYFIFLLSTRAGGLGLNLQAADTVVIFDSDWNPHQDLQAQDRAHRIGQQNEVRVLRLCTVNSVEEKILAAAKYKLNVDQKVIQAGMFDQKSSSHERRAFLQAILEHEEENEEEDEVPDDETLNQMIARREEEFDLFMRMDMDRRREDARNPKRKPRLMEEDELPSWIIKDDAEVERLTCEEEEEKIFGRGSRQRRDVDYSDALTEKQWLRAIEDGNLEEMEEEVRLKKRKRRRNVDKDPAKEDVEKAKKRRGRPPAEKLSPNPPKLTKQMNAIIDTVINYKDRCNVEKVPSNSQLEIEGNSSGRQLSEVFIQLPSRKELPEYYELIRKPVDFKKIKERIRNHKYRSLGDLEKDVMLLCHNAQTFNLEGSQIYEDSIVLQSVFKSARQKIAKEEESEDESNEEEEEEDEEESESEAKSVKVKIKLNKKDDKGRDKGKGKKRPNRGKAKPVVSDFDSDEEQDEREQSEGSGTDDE
T2 sequence (P51532 whole entry, the tested form may be a part): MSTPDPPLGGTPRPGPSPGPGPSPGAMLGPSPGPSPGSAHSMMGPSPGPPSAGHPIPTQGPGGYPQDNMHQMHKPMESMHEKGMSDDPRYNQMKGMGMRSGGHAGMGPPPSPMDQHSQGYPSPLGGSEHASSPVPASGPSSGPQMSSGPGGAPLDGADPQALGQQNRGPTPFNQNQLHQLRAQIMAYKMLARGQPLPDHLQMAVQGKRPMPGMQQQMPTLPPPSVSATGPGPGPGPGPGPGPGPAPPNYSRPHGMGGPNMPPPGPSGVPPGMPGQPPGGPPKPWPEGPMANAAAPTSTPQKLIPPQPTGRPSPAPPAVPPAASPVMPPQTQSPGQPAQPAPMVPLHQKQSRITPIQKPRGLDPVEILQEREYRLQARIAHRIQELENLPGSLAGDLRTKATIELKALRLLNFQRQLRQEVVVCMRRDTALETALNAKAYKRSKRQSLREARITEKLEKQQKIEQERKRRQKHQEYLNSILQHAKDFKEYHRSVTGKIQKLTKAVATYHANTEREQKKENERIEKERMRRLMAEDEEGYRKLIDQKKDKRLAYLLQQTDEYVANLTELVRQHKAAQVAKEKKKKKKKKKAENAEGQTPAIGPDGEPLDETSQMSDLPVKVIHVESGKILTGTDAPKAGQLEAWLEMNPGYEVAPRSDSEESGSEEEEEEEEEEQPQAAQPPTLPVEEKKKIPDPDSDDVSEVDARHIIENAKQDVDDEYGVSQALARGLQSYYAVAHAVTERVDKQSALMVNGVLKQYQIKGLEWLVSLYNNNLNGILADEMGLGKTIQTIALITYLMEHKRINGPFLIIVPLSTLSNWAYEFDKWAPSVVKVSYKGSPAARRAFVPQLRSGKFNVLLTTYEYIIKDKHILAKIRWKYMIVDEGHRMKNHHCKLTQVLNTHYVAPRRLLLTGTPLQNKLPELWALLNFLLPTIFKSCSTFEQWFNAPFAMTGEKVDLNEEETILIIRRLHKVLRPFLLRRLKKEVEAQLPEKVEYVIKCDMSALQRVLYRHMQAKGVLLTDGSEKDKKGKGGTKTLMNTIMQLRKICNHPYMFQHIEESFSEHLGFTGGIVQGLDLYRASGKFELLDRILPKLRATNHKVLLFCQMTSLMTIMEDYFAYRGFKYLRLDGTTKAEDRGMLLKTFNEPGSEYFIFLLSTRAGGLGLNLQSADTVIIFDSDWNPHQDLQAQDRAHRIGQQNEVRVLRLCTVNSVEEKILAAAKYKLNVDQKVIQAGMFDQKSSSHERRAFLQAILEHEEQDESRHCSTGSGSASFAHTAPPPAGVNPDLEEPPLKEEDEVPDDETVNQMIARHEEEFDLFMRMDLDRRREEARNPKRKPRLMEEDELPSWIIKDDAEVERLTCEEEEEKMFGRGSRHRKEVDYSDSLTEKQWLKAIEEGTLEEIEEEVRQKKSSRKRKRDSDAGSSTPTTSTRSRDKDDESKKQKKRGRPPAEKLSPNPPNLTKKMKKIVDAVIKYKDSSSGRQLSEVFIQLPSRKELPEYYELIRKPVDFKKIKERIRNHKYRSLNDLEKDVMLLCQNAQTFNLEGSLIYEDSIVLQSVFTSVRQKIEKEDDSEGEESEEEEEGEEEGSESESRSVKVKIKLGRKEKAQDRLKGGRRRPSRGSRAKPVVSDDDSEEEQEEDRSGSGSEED

Turning to `Cc1ncsc1-c1ccc([C@H](C)NC(=O)[C@@H]2C[C@@H](O)CN2C(=O)[C@@H](c2cc(OCCN3CC(c4cc5nnc(-c6ccccc6O)cc5n4C4COC4)C3)no2)C(C)C)cc1` [Compound 16, (2S,4R)-4-hydroxy-1-((R)-2-(3-(2-(3-(3-(2-hydroxyphenyl)-5-(oxetan-3-yl)-5H-pyrrolo[3,2-c]pyridazin-6-yl)azetidin-1-yl)ethoxy)isoxazol-5-yl)-3-methylbutanoyl)-N—((S)-1-(4-(4-methylthiazol-5-yl)phenyl)ethyl)pyrrolidine-2-carboxamide], at HiBit-BRM fusion protein, the “BRM HiBit Degradation Maximum (%)” value was “C (“C” indicates maximum degradation <50%)”. Moreover, the Dmax in experiment [1] is less than 50%.

`Cc1ncsc1-c1ccc([C@H](C)NC(=O)[C@@H]2C[C@@H](O)CN2C(=O)[C@H](C(C)C)n2cc(-c3cnc(N4CC[C@H](c5cc6nnc(-c7ccccc7O)cc6n5C5CC5)C4)nc3)nn2)cc1` [Compound 74, (2S,4R)-1-((S)-2-(4-(2-((S)-3-(5-cyclopropyl-3-(2-hydroxyphenyl)-5H-pyrrolo[3,2-c]pyridazin-6-yl)pyrrolidin-1-yl)pyrimidin-5-yl)-1H-1,2,3-triazol-1-yl)-3-methylbutanoyl)-4-hydroxy-N—((S)-1-(4-(4-methylthiazol-5-yl)phenyl)ethyl)pyrrolidine-2-carboxamide]: on HiBit-BRM fusion protein, the “BRM HiBit Degradation Maximum (%)” value was “A (“A” indicates maximum degradation ≥75%)” and the DC50 is less than 10 nM. In addition, in experiment [1], the Dmax was more than 50% and the DC50 was less than 10 nM.

In the case of `Cc1ncsc1-c1ccc([C@H](C)NC(=O)[C@@H]2C[C@@H](O)CN2C(=O)[C@@H](c2cc(N3CCC(CN4CC(c5cc6nnc(-c7ccccc7O)cc6[nH]5)C4)CC3)no2)C(C)C)cc1` [Compound 4, (2S,4R)-4-hydroxy-1-((R)-2-(3-(4-((3-(3-(2-hydroxyphenyl)-5H-pyrrolo[3,2-c]pyridazin-6-yl)azetidin-1-yl)methyl)piperidin-1-yl)isoxazol-5-yl)-3-methylbutanoyl)-N-((S)-1-(4-(4-methylthiazol-5-yl)phenyl)ethyl)pyrrolidine-2-carboxamide], at HiBit-BRM fusion protein, the “BRM HiBit Degradation Maximum (%)” value is on record as “A (“A” indicates maximum degradation ≥75%)” and the DC50 is more than 10 nM. In experiment [1], the Dmax was more than 50% and the DC50 is more than 100 nM.

On to `Cc1ncsc1-c1ccc([C@H](C)NC(=O)[C@@H]2C[C@@H](O)CN2C(=O)[C@@H](c2cc(OCCN3CC(n4cc(C(F)F)c5nnc(-c6ccccc6O)cc54)C3)no2)C(C)C)cc1` [Compound 32, (2S,4R)-1-((R)-2-(3-(2-(3-(7-(difluoromethyl)-3-(2-hydroxyphenyl)-5H-pyrrolo[3,2-c]pyridazin-5-yl)azetidin-1-yl)ethoxy)isoxazol-5-yl)-3-methylbutanoyl)-4-hydroxy-N—((S)-1-(4-(4-methylthiazol-5-yl)phenyl)ethyl)pyrrolidine-2-carboxamide], for which, at HiBit-BRM fusion protein, the “BRM HiBit Degradation Maximum (%)” value is given as “C (“C” indicates maximum degradation <50%)”. In addition, the Dmax in experiment [1] was less than 50%.

On to `Cc1ncsc1-c1ccc([C@H](C)NC(=O)[C@@H]2C[C@@H](O)CN2C(=O)[C@@H](c2cc(N3CC4(CC(c5cc6nnc(-c7ccccc7O)cc6n5C)C4)C3)no2)C(C)C)cc1` [Compound 67, (2S,4R)-4-hydroxy-1-((R)-2-(3-(6-(3-(2-hydroxyphenyl)-5-methyl-5H-pyrrolo[3,2-c]pyridazin-6-yl)-2-azaspiro[3.3]heptan-2-yl)isoxazol-5-yl)-3-methylbutanoyl)-N-((S)-1-(4-(4-methylthiazol-5-yl)phenyl)ethyl)pyrrolidine-2-carboxamide], for which, on HiBit-BRM fusion protein, the “BRM HiBit Degradation Maximum (%)” value was “A (“A” indicates maximum degradation ≥75%)” and the DC50 is less than 10 nM. In experiment [1], the Dmax is more than 50% and the DC50 is more than 10 nM.

In the case of `Cc1ncsc1-c1ccc([C@H](C)NC(=O)[C@@H]2C[C@@H](O)CN2C(=O)[C@@H](c2cc(N3CC[C@H](c4cc5nnc(-c6ccccc6O)cc5n4C4CC4)C3)no2)C(C)C)cc1` [Compound 99, (2S,4R)-1-((R)-2-(3-((S)-3-(5-cyclopropyl-3-(2-hydroxyphenyl)-5H-pyrrolo[3,2-c]pyridazin-6-yl)pyrrolidin-1-yl)isoxazol-5-yl)-3-methylbutanoyl)-4-hydroxy-N-((S)-1-(4-(4-methylthiazol-5-yl)phenyl)ethyl)pyrrolidine-2-carboxamide], at HiBit-BRM fusion protein, the “BRM HiBit Degradation Maximum (%)” value was “A (“A” indicates maximum degradation ≥75%)” and the DC50 is less than 10 nM. In experiment [1], the Dmax is more than 50% and the DC50 was more than 10 nM.

For the molecule `Cc1ncsc1-c1ccc([C@H](C)NC(=O)[C@@H]2C[C@@H](O)CN2C(=O)[C@@H](c2cc(-c3cnc(N4CCC(c5cc6nnc(-c7ccccc7O)cc6n5C5(C)CC5)CC4)nc3)no2)C(C)C)cc1` [Compound 43], on HiBit-BRM fusion protein, the “BRM HiBit Degradation Maximum (%)” value was “A (“A” indicates maximum degradation ≥75%)” and the DC50 is less than 10 nM. In addition, the Dmax in experiment [1] was less than 50%.

On to `Cc1ncsc1-c1ccc([C@H](C)NC(=O)[C@@H]2C[C@@H](O)CN2C(=O)[C@@H](c2cc(N3CCC4(CC3)CC(c3cc5nnc(-c6ccccc6O)cc5n3C3CC3)C4)no2)C(C)C)cc1` [Compound 117, (2S,4R)-1-((R)-2-(3-(2-(5-cyclopropyl-3-(2-hydroxyphenyl)-5H-pyrrolo[3,2-c]pyridazin-6-yl)-7-azaspiro[3.5]nonan-7-yl)isoxazol-5-yl)-3-methylbutanoyl)-4-hydroxy-N-((S)-1-(4-(4-methylthiazol-5-yl)phenyl)ethyl)pyrrolidine-2-carboxamide], for which, at HiBit-BRM fusion protein, the “BRM HiBit Degradation Maximum (%)” value is “A (“A” indicates maximum degradation ≥75%)” and the DC50 was less than 10 nM. The Dmax in experiment [1] was less than 50%.

Regarding `Cc1ncsc1-c1ccc([C@H](C)NC(=O)[C@@H]2C[C@@H](O)CN2C(=O)[C@@H](c2cc(N3CC4(CCC(c5cc6nnc(-c7ccccc7O)cc6n5C5CC5)CC4)C3)no2)C(C)C)cc1` [Compound 87, (2S,4R)-1-((R)-2-(3-(7-(5-cyclopropyl-3-(2-hydroxyphenyl)-5H-pyrrolo[3,2-c]pyridazin-6-yl)-2-azaspiro[3.5]nonan-2-yl)isoxazol-5-yl)-3-methylbutanoyl)-4-hydroxy-N-((S)-1-(4-(4-methylthiazol-5-yl)phenyl)ethyl)pyrrolidine-2-carboxamide], at HiBit-BRM fusion protein, the “BRM HiBit Degradation Maximum (%)” value is listed as “A (“A” indicates maximum degradation ≥75%)” and the DC50 is less than 10 nM. Moreover, in experiment [1], the Dmax was more than 75% and the DC50 was less than 10 nM.

With `CC(C)NC(=O)[C@@H]1C[C@@H](O)CN1C(=O)C(c1cc(N2CC3(CC(c4cc5nnc(-c6ccccc6O)cc5n4C4CCC4)C3)C2)no1)C(C)C` (stereo partly drawn) [Compound 54, (2S,4R)-1-(2-(3-(6-(5-cyclobutyl-3-(2-hydroxyphenyl)-5H-pyrrolo[3,2-c]pyridazin-6-yl)-2-azaspiro[3.3]heptan-2-yl)isoxazol-5-yl)-3-methylbutanoyl)-4-hydroxy-N-isopropylpyrrolidine-2-carboxamide], on HiBit-BRM fusion protein, the “BRM HiBit Degradation Maximum (%)” value was “A (“A” indicates maximum degradation ≥75%)” and the DC50 is more than 10 nM. In addition, in experiment [1], the Dmax is less than 50%.
